Assay results taken from PubChem BioAssay (NCI).
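Briefly, cells in 96-well plates were exposed to five compound concentrations for 48 h, and endpoints were estimated by linear interpolation. At the GI50, growth is halved. TGI marks complete inhibition of growth.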

Columns and labels:
Assay in all cases: NCI-60 cell line screen, 48 h
[1] = test system: 786-0 renal
[2] = test system: A498 renal
[3] = test system: A549 NSCLC
[4] = test system: ACHN renal
[5] = test system: BT-549 breast
[6] = test system: CAKI-1 renal
[7] = test system: CCRF-CEM leukemia
[8] = test system: COLO 205 colon
[9] = test system: DU-145 prostate
[10] = test system: EKVX NSCLC
[11] = test system: HCC-2998 colon
[12] = test system: HCT-116 colon
[13] = test system: HCT-15 colon
[14] = test system: HOP-62 NSCLC
[15] = test system: HS 578T breast
[16] = test system: HT29 colon
[17] = test system: IGROV1 ovarian
[18] = test system: K-562 leukemia
[19] = test system: KM12 colon
[20] = test system: LOX IMVI melanoma
[21] = test system: M14 melanoma
[22] = test system: MALME-3M melanoma
[23] = test system: MCF7 breast
[24] = test system: MDA-MB-231 breast
[25] = test system: MDA-MB-435
[26] = test system: MOLT-4 leukemia
[27] = test system: NCI-H226 lung
[28] = test system: NCI-H23 lung
[29] = test system: NCI-H460 lung
[30] = test system: NCI-H522 lung
[31] = test system: NCI/ADR-RES ovarian
[32] = test system: OVCAR-3 ovarian
[33] = test system: OVCAR-4 ovarian
[34] = test system: OVCAR-5 ovarian
[35] = test system: OVCAR-8 ovarian
[36] = test system: PC-3 prostate
[37] = test system: RPMI-8226 leukemia
[38] = test system: RXF 393 renal
[39] = test system: SF-268 CNS
[40] = test system: SF-295 CNS
[41] = test system: SF-539 CNS
[42] = test system: SK-MEL-2 melanoma
[43] = test system: SK-MEL-28 melanoma
[44] = test system: SK-MEL-5 melanoma
[45] = test system: SK-OV-3 ovarian
[46] = test system: SN12C renal
[47] = test system: SNB-19 CNS
[48] = test system: SNB-75 CNS
[49] = test system: SW-620 colon
[50] = test system: T-47D breast
[51] = test system: TK-10 renal
[52] = test system: U251 CNS
[53] = test system: UACC-257 melanoma
[54] = test system: UACC-62 melanoma
[55] = test system: UO-31 renal

In the case of `Cc1ccc(C2=C(c3ccc(C)cc3)C3(c4ccc(C)cc4)C4C(=O)c5ccccc5C(=O)C4C2(c2ccc(C)cc2)S3=O)cc1` (stereo not given), the GI50 [1] is reported as 69.5 µM, the TGI [1] is reported as greater than 100 µM and the GI50 [2] is reported as greater than 100 µM. The TGI [2] was greater than 100 µM, the GI50 [3] was greater than 100 µM and the TGI [3] was greater than 100 µM. It also gave a GI50 [4] greater than 100 µM, a TGI [4] greater than 100 µM and a GI50 [5] greater than 100 µM. It also gave a TGI [5] greater than 100 µM, a GI50 [6] greater than 100 µM and a TGI [6] greater than 100 µM. For the same molecule, the GI50 [7] was greater than 100 µM, the TGI [7] was greater than 100 µM and the GI50 [8] was greater than 100 µM. It also gave a TGI [8] greater than 100 µM, a GI50 [9] greater than 100 µM and a TGI [9] greater than 100 µM. It also gave a GI50 [10] greater than 100 µM, a TGI [10] greater than 100 µM and a GI50 [11] greater than 100 µM. The TGI [11] was greater than 100 µM, the GI50 [12] was greater than 100 µM and the TGI [12] was greater than 100 µM. For the same molecule, the GI50 [13] was greater than 100 µM, the TGI [13] was greater than 100 µM and the GI50 [14] was 73.7 µM. It also gave a TGI [14] greater than 100 µM, a GI50 [15] greater than 100 µM and a TGI [15] greater than 100 µM. It also gave a GI50 [16] greater than 100 µM, a TGI [16] greater than 100 µM and a GI50 [17] greater than 100 µM. For the same molecule, the TGI [17] was greater than 100 µM, the GI50 [18] was greater than 100 µM and the TGI [18] was greater than 100 µM. It also gave a GI50 [19] greater than 100 µM, a TGI [19] greater than 100 µM and a GI50 [20] greater than 100 µM. The TGI [20] was greater than 100 µM, the GI50 [21] was greater than 100 µM and the TGI [21] was greater than 100 µM. It also gave a GI50 [22] greater than 100 µM, a TGI [22] greater than 100 µM and a GI50 [23] greater than 100 µM. The TGI [23] was greater than 100 µM, the GI50 [24] was 60 µM and the TGI [24] was greater than 100 µM. The GI50 [25] was greater than 100 µM, the TGI [25] was greater than 100 µM and the GI50 [26] was greater than 100 µM. It also gave a TGI [26] greater than 100 µM, a GI50 [27] greater than 100 µM and a TGI [27] greater than 100 µM. It also gave a GI50 [28] greater than 100 µM, a TGI [28] greater than 100 µM and a GI50 [29] greater than 100 µM. The TGI [29] was greater than 100 µM, the GI50 [30] was greater than 100 µM and the TGI [30] was greater than 100 µM. It also gave a GI50 [31] greater than 100 µM, a TGI [31] greater than 100 µM and a GI50 [32] greater than 100 µM. The TGI [32] was greater than 100 µM, the GI50 [33] was 45 µM and the TGI [33] was greater than 100 µM. For the same molecule, the GI50 [34] was greater than 100 µM, the TGI [34] was greater than 100 µM and the GI50 [35] was greater than 100 µM. For the same molecule, the TGI [35] was greater than 100 µM, the GI50 [36] was greater than 100 µM and the TGI [36] was greater than 100 µM. The GI50 [37] was greater than 100 µM, the TGI [37] was greater than 100 µM and the GI50 [38] was 94.4 µM. The TGI [38] was greater than 100 µM, the GI50 [39] was greater than 100 µM and the TGI [39] was greater than 100 µM. The GI50 [40] was greater than 100 µM, the TGI [40] was greater than 100 µM and the GI50 [41] was greater than 100 µM. For the same molecule, the TGI [41] was greater than 100 µM, the GI50 [42] was greater than 100 µM and the TGI [42] was greater than 100 µM. It also gave a GI50 [43] of 60.6 µM, a TGI [43] greater than 100 µM and a GI50 [44] greater than 100 µM. For the same molecule, the TGI [44] was greater than 100 µM, the GI50 [45] was greater than 100 µM and the TGI [45] was greater than 100 µM. The GI50 [46] was greater than 100 µM, the TGI [46] was greater than 100 µM and the GI50 [47] was 63.7 µM. For the same molecule, the TGI [47] was greater than 100 µM, the GI50 [48] was 9.93 µM and the TGI [48] was 31 µM. The GI50 [49] was greater than 100 µM, the TGI [49] was greater than 100 µM and the GI50 [50] was 72.4 µM. For the same molecule, the TGI [50] was greater than 100 µM, the GI50 [51] was greater than 100 µM and the TGI [51] was greater than 100 µM. The GI50 [52] was 63 µM, the TGI [52] was greater than 100 µM and the GI50 [53] was greater than 100 µM. For the same molecule, the TGI [53] was greater than 100 µM, the GI50 [54] was greater than 100 µM and the TGI [54] was greater than 100 µM. For the same molecule, the GI50 [55] was greater than 100 µM and the TGI [55] was greater than 100 µM.
